Patent US20230121313A1 (priority 2019, published 2023)

Experiments:
[1] = tested on: subjects with TRD; conditions: human, in vivo, other: intranasal
Experimental: The Clinician Administered Dissociative States Scale (CADSS) was measured prior to the start of each dose, at 40 minutes, and 1.5 hours postdose.

[2] = tested on: subjects with MDD at imminent risk for suicide; conditions: 84 mg; double-blind phase; N = 35
Text: Among 68 randomized subjects, 66 were included in the safety analysis set (defined as receiving at least one dose of study medication in the double-blind phase). […] All safety subjects (N=66) were included in the intent-to-treat (ITT) analysis set (defined as receiving at least one dose of study medication during the double-blind phase and having both the baseline and the Day 1, 4-hour postdose evaluation for the MADRS total score). Forty-nine subjects were included in the safety (FU) analysis set (defined as all subjects who have at least 1 visit during the follow up phase).

With `CN[C@]1(c2ccccc2Cl)CCCCC1=O` [esketamine, (S)-2-(2-chlorophenyl)-2-(methylamino)cyclohexanone] the “CADSS dissociative/perceptual change symptoms resolved by (post dose)” value [1] was ≤ 1.5 h, the “Serious TEAE: Agitation, subjects (%)” value [2] was 2.9% and the “Serious TEAE: Depressive symptom, subjects (%)” value [2] was 2.9%. For the same compound, the “Serious TEAE: Psychiatric disorders, subjects (%)” value [2] was 11.4%, the “Serious TEAE: Suicidal ideation, subjects (%)” value [2] was 5.7% and the “Subjects with 1 or more serious TEAE (%)” value [2] was 11.4%. For the same compound, the “Subjects with TEAE leading to drug withdrawn (%)” value [2] was 14.3%, the “TEAE Acne, subjects (%)” value [2] was “(5.7%)” and the “TEAE Agitation, subjects (%)” value [2] was “(8.6%)”. For the same compound, the “TEAE Anxiety, subjects (%)” value [2] was “(17.1%)”, the “TEAE Blood pressure increased, subjects (%)” value [2] was “(5.7%)” and the “TEAE Diarrhea, subjects (%)” value [2] was “(8.6%)”. The “TEAE Diplopia, subjects (%)” value [2] was “(5.7%)”, the “TEAE Dissociation, subjects (%)” value [2] was “(31.4%)” and the “TEAE Dizziness postural, subjects (%)” value [2] was “(5.7%)”. The “TEAE Dizziness, subjects (%)” value [2] was “(34.3%)”, the “TEAE Dry mouth, subjects (%)” value [2] was “(8.6%)” and the “TEAE Dysgeusia, subjects (%)” value [2] was “(31.4%)”. The “TEAE Ear and labyrinth disorders, subjects (%)” value [2] was “(25.7%)”, the “TEAE Euphoric mood, subjects (%)” value [2] was “(11.4%)” and the “TEAE Eye disorders, subjects (%)” value [2] was “(20.0%)”. For the same compound, the “TEAE Fatigue, subjects (%)” value [2] was “(5.7%)”, the “TEAE Feeling abnormal, subjects (%)” value [2] was “(8.6%)” and the “TEAE Feeling cold, subjects (%)” value [2] was “(5.7%)”. The “TEAE Flatulence, subjects (%)” value [2] was “(2.9%)”, the “TEAE Gastrointestinal disorders, subjects (%)” value [2] was “(54.3%)” and the “TEAE General disorders and administration site conditions, subjects (%)” value [2] was “(28.6%)”. The “TEAE Headache, subjects (%)” value [2] was “(31.4%)”, the “TEAE Hyperacusis, subjects (%)” value [2] was “(5.7%)” and the “TEAE Hyperhidrosis, subjects (%)” value [2] was “(5.7%)”. For the same compound, the “TEAE Hypoesthesia oral, subjects (%)” value [2] was “(5.7%)”, the “TEAE Hypoesthesia, subjects (%)” value [2] was “(8.6%)” and the “TEAE Infections and infestations, subjects (%)” value [2] was “(2.9%)”. The “TEAE Insomnia, subjects (%)” value [2] was “(8.6%)”, the “TEAE Investigations, subjects (%)” value [2] was “(14.3%)” and the “TEAE Nasal congestion, subjects (%)” value [2] was “(2.9%)”. The “TEAE Nasal discomfort, subjects (%)” value [2] was “(8.6%)”, the “TEAE Nausea, subjects (%)” value [2] was “(37.1%)” and the “TEAE Nervous system disorders, subjects (%)” value [2] was “(71.4%)”. The “TEAE Oropharyngeal pain, subjects (%)” value [2] was “(5.7%)”, the “TEAE Paresthesia oral, subjects (%)” value [2] was “(5.7%)” and the “TEAE Paresthesia, subjects (%)” value [2] was “(17.1%)”. The “TEAE Pharyngeal hypoesthesia, subjects (%)” value [2] was “(5.7%)”, the “TEAE Psychiatric disorders, subjects (%)” value [2] was “(57.1%)” and the “TEAE Rash, subjects (%)” value [2] was “(2.9%)”. The “TEAE Renal and urinary disorders, subjects (%)” value [2] was “(2.9%)”, the “TEAE Respiratory, thoracic and mediastinal disorders, subjects (%)” value [2] was “(25.7%)” and the “TEAE Sedation, subjects (%)” value [2] was “(17.1%)”. For the same compound, the “TEAE Skin and subcutaneous tissue disorders, subjects (%)” value [2] was “(14.3%)”, the “TEAE Somnolence, subjects (%)” value [2] was “(11.4%)” and the “TEAE Suicidal ideation, subjects (%)” value [2] was “(5.7%)”. The “TEAE Throat irritation, subjects (%)” value [2] was “(8.6%)”, the “TEAE Tinnitus, subjects (%)” value [2] was “(5.7%)” and the “TEAE Vertigo, subjects (%)” value [2] was “(11.4%)”. For the same compound, the “TEAE Vision blurred, subjects (%)” value [2] was “(8.6%)”, the “TEAE Vomiting, subjects (%)” value [2] was “(20.0%)” and the “TEAE Weight increased, subjects (%)” value [2] was “(5.7%)”. The “TEAE leading to study discontinuation: Aggression, subjects (%)” value [2] was 2.9%, the “TEAE leading to study discontinuation: Agitation, subjects (%)” value [2] was 2.9% and the “TEAE leading to study discontinuation: Cardiac disorders, subjects (%)” value [2] was 2.9%. The “TEAE leading to study discontinuation: Dizziness, subjects (%)” value [2] was 2.9%, the “TEAE leading to study discontinuation: Dysgeusia, subjects (%)” value [2] was 2.9% and the “TEAE leading to study discontinuation: Dyspnea, subjects (%)” value [2] was 2.9%. The “TEAE leading to study discontinuation: Gastrointestinal disorders, subjects (%)” value [2] was 2.9%, the “TEAE leading to study discontinuation: Nausea, subjects (%)” value [2] was 2.9% and the “TEAE leading to study discontinuation: Nervous system disorders, subjects (%)” value [2] was 5.7%. The “TEAE leading to study discontinuation: Psychiatric disorders, subjects (%)” value [2] was 5.7%, the “TEAE leading to study discontinuation: Respiratory, thoracic and mediastinal disorders, subjects (%)” value [2] was 2.9% and the “TEAE leading to study discontinuation: Ventricular extrasystoles, subjects (%)” value [2] was 2.9%. For the same compound, the “Total no. subjects with TEAE leading to study discontinuation (%)” value [2] was 14.3%.
